Experimental data as given in publication PMC3479139, “Diverse Small Molecule Inhibitors of Human Apurinic/Apyrimidinic Endonuclease APE1 Identified from a Screen of a Large Public Collection” (PLoS ONE, 2012).

Experiments:
[1] = biological target: double-stranded 17-mer DNA fragment; test: ThO (Thiazole Orange) DNA displacement assay; type: binding; conditions: read-out: ThO-DNA binding IC50;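 note: miniaturized displacement of the intercalating dye from unlabeled duplex DNA, used to flag nonspecific DNA binders, chiefly intercalators, groove binders may be missed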
APE1 [2] = biological target: T1, APE1 (Homo sapiens, UniProt P27695); test: Fluorescence polarization (FP) displacement assay of APE1 binding to AP-DNA probe; conditions: read-out: FP IC50;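 note: TAMRA 5′-labeled duplex DNA with THF abasic site (5 nM) and APE1 (20 nM), Mg2+-free buffer, 15 min at room temperature, inhibition seen as lowered polarization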
T1 construct: made in house
T1 sequence (P27695 whole entry): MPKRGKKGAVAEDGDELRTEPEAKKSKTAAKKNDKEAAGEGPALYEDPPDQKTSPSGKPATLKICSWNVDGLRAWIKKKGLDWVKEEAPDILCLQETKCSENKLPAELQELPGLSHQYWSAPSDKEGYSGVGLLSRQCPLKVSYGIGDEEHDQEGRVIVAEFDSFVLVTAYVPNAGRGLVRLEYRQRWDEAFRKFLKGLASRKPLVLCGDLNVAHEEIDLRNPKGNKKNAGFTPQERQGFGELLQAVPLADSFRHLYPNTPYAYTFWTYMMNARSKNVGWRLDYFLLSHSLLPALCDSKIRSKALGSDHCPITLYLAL

E. coli Endo IV = biological target: T2, E. coli Endo IV (Escherichia coli, UniProt P0A6C1); test: E. coli Endo IV profiling counterscreen; type: biochemical; conditions: read-out: EndoIV IC50;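 note: selectivity counterscreen of candidate APE1 inhibitors against the bacterial endonuclease Endo IV, run in the same assay format as the primary APE1 high-throughput screen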
T2 construct: made in house
Text: In order to screen out nonselective compounds, such as non-specific DNA binders and inhibitors of related enzymes, we used a miniaturized ThO DNA displacement assay and a counterscreen against the bacterial endonuclease E. coli Endo IV, respectively, following the previously published protocols [21].
To probe the selectivity of the candidate APE1 inhibitors, we tested them against E. coli EndoIV [36], employing the same assay as used in the HTS.

APE1 [3] = biological target: T1, APE1; test: Fluorogenic kinetic qHTS APE1 incision assay (primary screen and retest of cherrypicked samples); type: biochemical;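 note: purified APE1 cleaving a fluorophore/dark-quencher labelled 17-mer duplex DNA bearing a tetrahydrofuran AP site, fluorescence rise followed kinetically over the first 2 min, inhibition normalized to controls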
APE1 [4] = biological target: T1, APE1; test: Gel-based APE1 incision assay with fluorescence (TAMRA) detection; type: biochemical
[5] = initial quantitative high-throughput screen, read-out: APE1 qHTS IC50
[6] = retest of cherrypicked sample, read-out: APE1 Retest IC50
[7] = estimated IC50, fluorophore detection, entries 113-223, read-out: F-PAGE Assay IC50
[8] = entries 113-223: fluorophore detection, estimated IC50, read-out: Gel-based electrophoretic separation assay with fluorophore detection, estimated IC50 (column headed Radiotracer Assay (%Activity))

Row | Structure (SMILES) | IC50 [1] [µM] | IC50 (APE1 [2]) [µM] | IC50 (E. coli Endo IV) [µM] | IC50 (APE1 [3]; [5]) [µM] | IC50 (APE1 [3]; [6]) [µM] | IC50 (APE1 [4]; [7]) [µM] | IC50 (APE1 [4]; [8]) [µM]
1 | NS(=O)(=O)c1cc(C(=O)NC2CCSc3ccccc32)ccc1Cl (stereo not drawn) [MLS001233727] | > 57 | > 57 | > 57 | 0.1 | 0.3 | 0.1 | 
2 | COc1ccc(S(=O)(=O)NCCC(=O)NC2CCCCC2C)cc1[N+](=O)[O-] (stereo not drawn) [MLS002251710] | > 57 | 20.4 | > 57 | 26.7 | 16.2 |  | 11.2
3 | Nc1nc(=S)c2ncn(C3OC(CO)C(O)C3O)c2[nH]1 (stereo not drawn) [MLS000738229] | 28.9 | > 57 | > 57 | 13.4 | 3.6 | 2.5 | 
4 | COC(=O)c1ccn(CC(=O)NC2CCCCC2)n1 [MLS001030262] | > 57 | > 57 | > 57 | 29.9 | 12.9 | 5.6 | 
5 | CCN(CC(=O)Nc1c(F)cccc1F)C(=O)/C=C/c1ccc2ccccc2n1 [MLS001128172] | > 57 | > 57 | > 57 | 1.7 | 20.4 | 4 | 
6 | Nc1c(C(=O)OCC(=O)Nc2cccc([N+](=O)[O-])c2)[nH]c(=O)[nH]c1=O [MLS002171489] | > 57 | > 57 | > 57 | 8.4 | 16.2 | 7.9 | 
7 | O=C(COC(=O)Cc1cccc(C(F)(F)F)c1)NCc1ccco1 [MLS002169571] | > 57 | > 57 | > 57 | 10.6 | 45.7 | 7.1 | 
8 | CCNc1nc(NCC)n2c(SCC(=O)Nc3ccc(OC(F)F)cc3)nnc2n1 [MLS001234379] | > 57 | > 57 | > 57 | 10.6 | 11.5 | 7.1 | 
9 | NC(=O)c1ccc(NC(=O)COC(=O)c2cc3c(s2)CCC3)cc1 [MLS002251079] | > 57 | 18.2 | > 57 | 3 | 12.9 | 3.5 | 
10 | CCOc1ccc(NC(=O)c2cccc(-n3cccc3)c2)cc1S(=O)(=O)N1CCOCC1 [MLS002164959] | > 57 | > 57 | > 57 | 1.3 | 11.5 | 2.8 | 
11 | CC(=O)c1ccccc1NS(=O)(=O)c1cccc2nsnc12 [MLS001008046] | > 57 | 28.9 | > 57 | 5.3 | 8.1 | 5.6 | 
12 | O=S(=O)(Nc1ccccc1)c1cccc2nsnc12 [MLS000999698] | > 57 | 40.8 | > 57 | 7.5 | 22.9 | 10 | 
13 | O=C(CSc1nnc(CNC(=O)c2c(F)cccc2F)o1)NCc1ccco1 [MLS001235900] | > 57 | 18.2 | > 57 | 10.6 | 45.7 |  | 12.6
14 | Cc1cccc(NC(=O)CNC(=O)CCc2nc3sc4c(c3c(=O)[nH]2)CCCC4)c1C [MLS001156641] | 45.7 | > 57 | > 57 | 10.6 | 36.3 | 4 | 
15 | Nc1c(S(=O)(=O)O)cc(NC(=O)c2ccccc2)c2c1C(=O)c1ccccc1C2=O [MLS001194971] | > 57 | > 57 | > 57 | 21.2 | 18.2 | 7.9 | 
16 | Cc1ccc(C)c(NC(=O)CN(C)C(=O)c2cccc(-n3cccc3)c2)c1 [MLS001161412] | > 57 | 12.9 | 16.2 | 3 | 5.8 | 2.8 | 
17 | COc1ccc(Cl)cc1NC(=O)CCS(=O)(=O)c1ccc(Br)cc1 [MLS001202289] | 45.7 | > 57 | > 57 | 11.9 | 45.7 |  | 12.6
18 | COc1ccccc1N(CC(=O)NCc1ccco1)S(=O)(=O)c1ccc(C)cc1 [MLS001219746] | > 57 | > 57 | > 57 | 21.2 | 16.2 | 8.9 | 
19 | CC(=O)Nc1ccc(S(=O)(=O)NCCC(=O)OCC(=O)N2CCN(C(=O)c3ccco3)CC2)cc1 [MLS001078987] | > 57 | 20.4 | > 57 | 16.8 |  |  | 22.4
20 | COC(=O)c1cc(NC(=O)Cc2cccs2)cc(C(=O)OC)c1 [MLS001211293] | > 57 | > 57 | > 57 | 13.4 |  | 7.1 | 
21 | O=C(CSc1nc2sc3c(c2c(=O)n1-c1ccccc1)CCCC3)NN=Cc1ccccc1C(=O)O [MLS001147809] | > 57 | > 57 | > 57 | 10.6 | 14.5 |  | 12.6
22 | NS(=O)(=O)c1cccc(NC(=O)c2ccc3nc[nH]c3c2)c1 [MLS001177378] | 32.4 | > 57 | > 57 | 26.7 | 45.7 |  | 12.6
23 | O=C(CSc1nnc(Nc2ccccc2F)s1)NC(=O)CN1CCCC1=O [MLS002163634] | > 57 | 18.2 | > 57 | 10.6 | 10.2 | 8.9 | 
24 | CN(CC(=O)Nc1cccc(F)c1)C(=O)c1cccc(-n2cccc2)c1 [MLS001071694] | > 57 | 22.9 | > 57 | 3.4 | 5.1 | 5 | 
25 | Cc1ccc(NC(=O)CN(C)C(=O)c2cc(-c3ccco3)nc3ccccc23)cc1 [MLS001099510] | > 57 | > 57 | > 57 | 5.3 | 22.9 | 3.5 | 
26 | CSCC[C@H](NS(=O)(=O)c1ccc(C(C)=O)cc1)c1nnc2ccccn12 [MLS001158971] | > 57 | > 57 | > 57 | 21.2 | 9.1 |  | 22.4
27 | CC1(C)CC2CC(C)(CN2C(=O)COC(=O)c2ccc(O)cc2O)C1 (stereo not drawn) [MLS002251953] | > 57 | > 57 | > 57 | 10.6 | 14.5 |  | 15.8
28 | COc1ccc(S(=O)(=O)N2CCOCC2)cc1NC(=O)c1cccc(-n2cccc2)c1 [MLS001161521] | > 57 | > 57 | > 57 | 3.8 | 7.3 | 4.5 | 
29 | COc1ccc(S(=O)(=O)N2CCN(C(=O)c3cc4c(s3)CCC4)CC2)cc1 [MLS002248682] | > 57 | > 57 | > 57 | 2.7 | 8.1 | 2 | 
30 | O=C(C[C@@H]1C/C=C\C[C@H](Cc2ccc(F)cc2)C(=O)OC[C@@H](Cc2c[nH]c3ccccc23)NC1=O)NCCO [MLS002320105] | > 57 | > 57 | > 57 | 11.9 |  | 5.6 | 
